Experimental data reported in patent US20030134901A1, “Lipoxin compounds and their use in treating cell proliferative disorders” (priority 1993, published 2003).

How the values were obtained:
[1] = system: PLD activity in human PMN; assay: PLD activity (PEt formation) in PMN; type: cell-based; settings: PMN; IAP at LXA4 10^−9-10^−10 M, staurosporine (100 nM) at LXA4 10^−7 M
Procedure: PMN, platelet and RBC isolation from peripheral blood. Human PMN were obtained by the modified Böyum method (Böyum, A. (1968) Scan. J. Clin. Lab. Invest. 21:77) from fresh heparinized blood after venipuncture of healthy normal volunteers. Suspensions in PBS were monitored for cell number and viability by their ability to exclude trypan blue both exceeding 98%. Red blood cells were obtained from 10 ml of heparinized blood after three centrifugations in PBS (2,500 rpm, 10 min at 21° C.). Blood drawn in acidic citrate dextrose (9:1, v/v) was used to isolate platelets as previously described (Serhan, C. N. and Sheppard, K.-A. (1990) J. Clin. Invest. 85:772). PLD activity. Human PMN and HL-60 cells (50×10^6 cells/ml) prepared as above were incubated with ^3H-myristic acid or ^3H-palmitic acid (8 μCi/50×10^6 cells) for 40-60 min at 37° C. in PBS. […] Incubations were carried out at 37° C. (10 ×10^6 cells/ml PBS). […] M. et al. (1989) J. Biol. Chem. 264:17069. At indicated times, incubations were stopped by adding 3.5 ml of ice cold CHCl3/MeOH (2/5, v/v) containing 1-^14C-arachidonic acid (5,000 cpm) used here as internal standard to quantitate extraction recoveries. Samples were extracted using a modified Bligh and Dyer extraction as in (Serhan, C. N. and Sheppard, K. -A. (1990) J. Clin. Invest. 85:772). Organic phases, concentrated in 50 μL of CHCl3/MeOH (8/2, v/v), were spotted onto linear […] TLC plates developed with the organic phase of ethyl acetate[…][…] (110/50/20/100, v/v/v/v) for 50 min ([…]. et al.(1989) J. Biol. Chem. 264:17069). […] Regions corresponding to PA, PEt, and internal standards were scraped and quantified by liquid scintillation counting. […] In these experiments, PA was resolved using ethyl acetate[…][…]) as solvent system ([…]. et al. (1989) Anal. […] Impact of IAP and staurosporine on LXA4-induced PLD activity. PLD activity assays, performed as described (vide supra), were preceded by cell exposure to either IAP or staurosporine. […]

[2] = system: PLD activity in differentiated HL-60 cells; assay: PLD activity (PEt formation) in differentiated HL-60 cells; type: cell-based, human; settings: HL-60 cells; IAP (300 ng/ml) at LXA4 10^−9-10^−10 M, staurosporine (100 nM) at LXA4 10^−7 M
Procedure: Cell cultures and differentiation. HL-60 cells were seeded in RPMI medium supplemented with 100 U/ml penicillin, 100 μg/ml streptomycin, and 10% fetal calf serum (Hyclone, Logan, Utah), incubated at 37° C. with 5% CO2 atmosphere in 250 ml flasks. Individual flasks containing ˜[…] next received dimethyl sulfoxide (DMSO) (1.12% v/v, 120 h) or retinoic acid (RA) (1 μM, 120 h) or phorbol myristate acetate (PMA) (20 nM, 48 h). Before performing binding assays, cells were washed twice in phosphate buffered saline (PBS), Ca^2+- and Mg^2+-free, enumerated and suspended at 20×10^6 cells/ml in Tris buffer (10 mM), pH 7.4 (Fiore, S. et al.(1992) J. Biol. Chem. 267:16168). Nitro blue tetrazolium reduction was performed to monitor induction of polymorphonuclear phenotype as in (Imaizumi, M. and Breitman, T. R. (1986) Blood 67:1273), and cell adherence was determined for induction of macrophage-like phenotype (Collins, S. J. (1987) Blood 70:1273). Human umbilical vein endothelial cells (HUVEC) maintained in culture third passage were obtained from Dr. M. Gimbrone (Brigham and Women's Hospital Department of Pathology).
PLD activity. Human PMN and HL-60 cells (50×10^6 cells/ml) prepared as above were incubated with ^3H-myristic acid or ^3H-palmitic acid (8 μCi/50×10^6 cells) for 40-60 min at 37° C. in PBS. Cell uptake ranged between 60-80% of added label, 7.1±4.2% (n=10; mean ±S.D.) and 32.6±10.3% (n=6; mean ±S.D.) into total phospholipid classes of PMN and HL-60 cells, respectively. Incubations were carried out at 37° C. (10 ×10^6 cells/ml PBS). […] At indicated times, incubations were stopped by adding 3.5 ml of ice cold CHCl3/MeOH (2/5, v/v) containing 1-^14C-arachidonic acid (5,000 cpm) used here as internal standard to quantitate extraction recoveries. […] Regions corresponding to PA, PEt, and internal standards were scraped and quantified by liquid scintillation counting. […] All values reported for PEt formation in Tables 4 and 5 were calculated by subtracting the dpm obtained in the presence of […]. […]

A549 cells = assay: A549 cell proliferation, MTT assay; type: cell-based, human; settings: Homo sapiens, A549
Procedure: A microculture 3,(4,5-dimethylthiazoyl-2-yl) 2,5 (diphenyl-tetrazolium bromide) (MTT) assay, (Marshall, N. J., et al. (1995) A critical assessment of the use of microculture tetrazolium assays to measure cell growth and function. Growth Regul. 5: 69-84.), was used to examine the actions of LXs and other eicosanoids on cell proliferation. A549 cells and fibroblasts from exponential-phase maintenance cultures were counted and dispensed within replicate 96-well culture plates in 100 μl volumes of medium (˜2000 cells/well). Following 24 hours at 37° C., the culture medium was removed, and fresh medium (100 μl) containing either the compounds (5-1000 nM) or vehicle (medium plus 0.15% ethanol) was added to 4 replicates for each condition studied and the culture plates were then incubated for up to 96 hours at 37° C. in a 5% CO2 atmosphere. At the end of this period, 25 μl of freshly prepared MTT in HBSS (5 mg/ml) was added to the wells and the plates were incubated for 4 hours at 37° C. Dye solution was aspirated, wells were washed once with HBSS and dye taken up by the cells was extracted in 100 μl of isopropyl alcohol:1 N HCl (96:4, v/v) and quantitated at 570 nm using a microplate reader (Molecular Devices, Menlo Park, Calif.). In some experiments, cells were grown in 12-well culture plates, treated as above and enumerated using a Neubauer hemocytometer. Viability was assessed routinely using trypan blue exclusion assay. For the A549 cells and fibroblasts, a linear relation was established for the MTT values and cell number within the range of the experiments shown (r=0.995, P<0.005). A549 cells grown for 72 hours in the presence of the compounds (5-1000 nM) or vehicle (0.15% EtOH) were lysed with 0.25 N NaOH and the cellular protein content was determined by applying the Bio-Rad (Richmond, Calif.) microassay method using bovine serum albumin as standard. The mean cellular protein content in resting A549 cells was 46.6±1.5 pg/cell.

human skin fibroblasts = assay: Fibroblast proliferation, MTT assay; type: cell-based; settings: Homo sapiens, Skin fibroblast; 100 nM, n=3
Excerpt: Human type II epithelial A549 cells from human lung carcinoma and normal human skin fibroblast (breast) were obtained from the American Type Culture Collection (Rockville, Md.). The A549 cell line originated from a human alveolar cell carcinoma and was a useful cell line because it was easily assessable and could be maintained in culture without contaminating tissue macrophages. (Lieber, M., et al (1976) A continuous tumor-cell line from a human lung carcinoma with properties of type II alveolar epithelial cells. Int. J Cancer Fibroblasts were utilized within their limited window of viability and their passage numbers were recorded (results are reported for cells from 3-5 passages). Epithelial A549 cells were seeded into T-75 cm^2 tissue culture flasks and maintained in F-12K medium supplemented with 10% heat-inactivated FBS, penicillin (50 U/mL) and streptomycin (50 (g/mL). Human PMN from healthy donors who had not taken ASA or other medications for at least two weeks were obtained by Ficoll-Hypaque gradient centrifugation and dextran sedimentation, (Böyum A. (1968) Isolation of mononuclear cells and granulocytes from human blood. […] Viability of A549 cells and PMN was determined by their ability to exclude trypan blue and were 95±2 and 97±1%, respectively.
A microculture 3,(4,5-dimethylthiazoyl-2-yl) 2,5 (diphenyl-tetrazolium bromide) (MTT) assay, (Marshall, N. J., et al. (1995) A critical assessment of the use of microculture tetrazolium assays to measure cell growth and function. Growth Regul. 5: 69-84.), was used to examine the actions of LXs and other eicosanoids on cell proliferation. A549 cells and fibroblasts from exponential-phase maintenance cultures were counted and dispensed within replicate 96-well culture plates in 100 μl volumes of medium (˜2000 cells/well). […] Dye solution was aspirated, wells were washed once with HBSS and dye taken up by the cells was extracted in 100 μl of isopropyl alcohol:1 N HCl (96:4, v/v) and quantitated at 570 nm using a microplate reader (Molecular Devices, Menlo Park, Calif.). […]

| Compound | effect on LXA4-mediated PLD activity [1] | effect on LXA4-mediated PLD activity [2] | inhibition at 0.1 µM (A549 cells; 10^−7 M, 72 hours at 37° C., mean ± SEM, 3 to 7 experiments) [%] | IC50 (A549 cells; MTT assay, 72 hours, read-out: half maximum inhibition (IC50) of A549 cell proliferation) [nM] | inhibition at 0.1 µM (human skin fibroblasts) [%] |
| --- | --- | --- | --- | --- | --- |
| CN[C@@H]1C[C@H]2O[C@@](C)([C@@H]1OC)n1c3ccccc3c3c4c(c5c6ccccc6n2c5c31)C(=O)NC4 [staurosporine] | inhibited by staurosporine | inhibited by staurosporine |  |  |  |
| C[C@@H]1C[C@H]2[C@@H]3CCC4=CC(=O)C=C[C@]4(C)[C@@]3(F)[C@@H](O)C[C@]2(C)[C@@]1(O)C(=O)CO [Dexamethasone] |  |  | 42.1 ± 5.4 | ~7 | 29.7 |
| IAP: Islet activating protein | sensitive to IAP treatment | sensitive to IAP treatment |  |  |  |
